{
  "source": "patent US9133142B2",
  "about": "“Salts or co-crystals of 3-(3-dimethylamino-1-ethyl-2-methyl-propyl)-phenol” (Gruenenthal GmbH, priority 2010, dated 2015)",
  "key": {"[1]": {"experiment": "Thermogravimetric analysis (TGA) of salts or cocrystals", "format": "physicochemical", "details": "for TGA no weight loss up to: nitrogen flow, heating rate of 10° C./min", "description": "Thermogravimetric investigations were performed with a Mettler-Toledo TGA/SDTA851.\nUnless otherwise specified, the samples were weighed in a aluminium crucible and measured in nitrogen flow. Generally TGA investigations were performed in a temperature range of 25 to about 200° C. or resp. 350° C. with a heating rate of 10° C./min."}, "[2]": {"details": "cited from earlier work"}, "[3]": {"details": "clinical studies; cited from earlier work"}, "[4]": {"molecular_target": "recombinantly produced μ-opioid receptor (Homo sapiens, UniProt P35372)", "sequence (P35372 whole entry)": "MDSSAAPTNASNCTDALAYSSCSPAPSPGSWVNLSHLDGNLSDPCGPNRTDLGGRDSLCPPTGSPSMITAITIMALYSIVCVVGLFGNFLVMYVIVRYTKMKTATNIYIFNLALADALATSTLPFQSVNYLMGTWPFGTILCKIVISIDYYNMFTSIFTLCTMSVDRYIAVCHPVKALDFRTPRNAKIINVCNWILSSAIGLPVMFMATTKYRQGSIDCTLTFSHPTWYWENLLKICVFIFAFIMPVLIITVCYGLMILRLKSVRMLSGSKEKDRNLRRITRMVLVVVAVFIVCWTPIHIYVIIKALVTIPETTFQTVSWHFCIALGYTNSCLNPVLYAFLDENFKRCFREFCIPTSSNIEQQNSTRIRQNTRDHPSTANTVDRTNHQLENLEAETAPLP", "details": "relative to morphine; cited from earlier work"}},
  "note": "Structures can show the parent of a compound that is named as a salt.",
  "data": [
    {"compound": "Salt or Cocrystal of Embonic Acid and Tapentadol [Example D-1]", "values": [
      {"measurement": "TGA weight loss", "setting": "[1]; 90° C.-157° C.", "value": "−7.1", "unit": "%"}
    ]},
    {"compound": "Salt or Cocrystal of Tapentadol and Embonic Acid [b1-4-4]", "values": [
      {"measurement": "weight loss (TGA)", "setting": "[1]; range 53 to 167° C.", "value": "−5.7", "unit": "%"}
    ]},
    {"compound": "Salt or Cocrystal of Tapentadol and Embonic Acid [b1-4-3]", "values": [
      {"measurement": "weight loss (TGA)", "setting": "[1]; range 31 to 171° C.", "value": "< 0.1", "unit": "%"}
    ]},
    {"compound": "Salt or Cocrystal of Nitric Acid and Tapentadol [Example H-1]", "values": [
      {"measurement": "TGA no weight loss up to", "setting": "[1]", "value": "to 170 °C"}
    ]},
    {"compound": "CC[C@@H](c1cccc(O)c1)[C@@H](C)CN(C)C.O=C(O)CCCCCCCCC(=O)O", "note": "[Example B-1, Salt or Cocrystal of Sebacid Acid and Tapentadol]", "values": [
      {"measurement": "TGA no weight loss up to", "setting": "[1]", "value": "to 140 °C"},
      {"measurement": "TGA no weight loss up to", "setting": "[1]; listed as B-2", "value": "to 105 °C"},
      {"measurement": "TGA no weight loss up to", "setting": "[1]; listed as B-3", "value": "to 145 °C"}
    ]},
    {"compound": "CC[C@@H](c1cccc(O)c1)[C@@H](C)CN(C)C", "note": "[hydrogen chloride salt of 3-(3-dimethylamino-1-ethyl-2-methyl-propyl)-phenol]", "values": [
      {"measurement": "solubility in water and aqueous media", "setting": "[2]", "value": "high solubility"}
    ]},
    {"compound": "CC[C@@H](c1cccc(O)c1)[C@@H](C)CN(C)C", "note": "[tapentadol, (1R,2R)-3-(3-dimethylamino-1-ethyl-2-methyl-propyl)-phenol]", "values": [
      {"measurement": "pain-alleviating action relative to morphine", "setting": "[3]", "value": "two to three times less"},
      {"measurement": "affinity to the recombinantly produced μ-opioid receptor, times less than that of morphine", "setting": "[4]", "value": 18, "unit": "times"}
    ]},
    {"compound": "CC[C@@H](c1cccc(O)c1)[C@@H](C)CN(C)C.O=C(O)c1cccnc1", "note": "[Example b2-1c, Salt or Cocrystal of Tapentadol and Nicotinic Acid]", "values": [
      {"measurement": "TG weight change", "setting": "[1]; 29.76-135.97° C.", "value": "−0.19", "unit": "%"},
      {"measurement": "weight loss (TGA)", "setting": "[1]; range: 25 to 148° C.", "value": "< 0.3", "unit": "%"}
    ]},
    {"compound": "CCC(c1cccc(O)c1)C(C)CN(C)C.O=C1NS(=O)(=O)c2ccccc21", "note": "(centres unmarked) [Example J-1, Salt or Cocrystal of Saccharin and Tapentadol]", "values": [
      {"measurement": "TGA no weight loss up to", "setting": "[1]", "value": "to 105 °C"}
    ]},
    {"compound": "CC[C@@H](c1cccc(O)c1)[C@@H](C)CN(C)C.O=C(O)c1ccc2ccccc2c1O", "note": "[Example C-1, Salt or Cocrystal of 1-hydroxy-2-naphthoic Acid and Tapentadol]", "values": [
      {"measurement": "TGA no weight loss up to", "setting": "[1]", "value": "to 125 °C"},
      {"measurement": "TGA no weight loss up to", "setting": "[1]; listed as C-2", "value": "to 130 °C"}
    ]},
    {"compound": "CC[C@@H](c1cccc(O)c1)[C@@H](C)CN(C)C.CC[C@@H](c1cccc(O)c1)[C@@H](C)CN(C)C.O=C(O[C@H](C(=O)O)[C@H](OC(=O)c1ccccc1)C(=O)O)c1ccccc1", "note": "[Example A-1, Hemi Salt or Hemi Cocrystal of (2S,3S)-Di-benzoyl Tartaric Acid and Tapentadol]", "values": [
      {"measurement": "TGA no weight loss up to", "setting": "[1]", "value": "to 140 °C"},
      {"measurement": "TGA no weight loss up to", "setting": "[1]; listed as A-2", "value": "to 160 °C"},
      {"measurement": "TGA no weight loss up to", "setting": "[1]; listed as A-3", "value": "to 160 °C"}
    ]},
    {"compound": "CC[C@@H](c1cccc(O)c1)[C@@H](C)CN(C)C.CC[C@@H](c1cccc(O)c1)[C@@H](C)CN(C)C.O=C(O)/C=C/C(=O)O", "note": "[Example I-1, Hemi Salt or Hemi Cocrystal of Fumaric Acid and Tapentadol]", "values": [
      {"measurement": "TGA no weight loss up to", "setting": "[1]", "value": "to 131 °C"},
      {"measurement": "TGA no weight loss up to", "setting": "[1]; listed as I-2", "value": "to 130 °C"},
      {"measurement": "TGA no weight loss up to", "setting": "[1]; listed as I-3", "value": "to 130 °C"}
    ]},
    {"compound": "CCC(c1cccc(O)c1)C(C)CN(C)C.O=C(O)CC(=O)O", "note": "(centres unmarked) [Example E-1, Salt or Cocrystal of Malonic Acid and Tapentadol]", "values": [
      {"measurement": "TGA no weight loss up to", "setting": "[1]", "value": "to 115 °C"}
    ]},
    {"compound": "CC[C@@H](c1cccc(O)c1)[C@@H](C)CN(C)C", "note": "[Example F-1, Salt or Cocrystal of Hydrobromic Acid and Tapentadol]", "values": [
      {"measurement": "TGA no weight loss up to", "setting": "[1]", "value": "to 195 °C"}
    ]},
    {"compound": "CC[C@@H](c1cccc(O)c1)[C@@H](C)CN(C)C.O=C(O)c1cccnc1", "note": "[Example b2-1b, Salt or Cocrystal of Tapentadol and Nicotinic Acid]", "values": [
      {"measurement": "weight loss (TGA)", "setting": "[1]; range: 27 to 171° C.", "value": "−5.9", "unit": "%"}
    ]},
    {"compound": "CC[C@@H](c1cccc(O)c1)[C@@H](C)CN(C)C.O=C(O)c1cccnc1", "note": "[Example G-2, Salt or Cocrystal of Nicotinic Acid and Tapentadol]", "values": [
      {"measurement": "TGA no weight loss up to", "setting": "[1]", "value": "to 135 °C"},
      {"measurement": "TGA no weight loss up to", "setting": "[1]; listed as G-3", "value": "to 150 °C"}
    ]},
    {"compound": "Salt or Cocrystal of Embonic Acid and Tapentadol [Example D-2]", "values": [
      {"measurement": "TGA no weight loss up to", "setting": "[1]", "value": "to 170 °C"},
      {"measurement": "TGA no weight loss up to", "setting": "[1]; listed as D-3", "value": "to 160 °C"}
    ]},
    {"compound": "CC[C@@H](c1cccc(O)c1)[C@@H](C)CN(C)C.O=C(O)c1cccnc1", "note": "[Example G-1, Salt or Cocrystal of Nicotinic Acid and Tapentadol]", "values": [
      {"measurement": "TGA weight loss", "setting": "[1]; 28° C.-171° C.", "value": "−6.4", "unit": "%"}
    ]}
  ]
}
